Assay results: the supplement of paper PMC8882468
± gives the standard deviation of the averaged measurements.

Columns and labels:
Experiment in all cases: CTG-3D luminescence at 96 h relative to day-0 seeding control (ratio to day 0); higher = more growth / less cytotoxicity; PDxO 3D drug screen, 96 h, CTG-3D normalised to day-0 seeding control.
[1] = test system: HCI-024 (organoid from a breast cancer xenograft)
[2] = test system: HCI-012 (organoid from a breast cancer xenograft)
[3] = test system: HCI-003.E2 (organoid from an ER-positive breast cancer xenograft)
[4] = test system: MDA-MB-231
[5] = test system: HCI-027 (organoid from a triple-negative breast cancer xenograft)
[6] = test system: HCI-019 (organoid from a triple-negative breast cancer xenograft)
[7] = test system: HCI-023 (organoid from a triple-negative breast cancer xenograft)

CN(Cc1cnc2nc(N)nc(N)c2n1)c1ccc(C(=O)N[C@@H](CCC(=O)O)C(=O)O)cc1 [methotrexate]
CTG-3D luminescence at 96 h
Settings | 12.5 pM | 0.00025 µM | 0.005 µM | 0.1 µM | 1 µM | 10 µM | 100 µM | 625 fM
[1], days in culture: 105 | 1.92 | 1.49 | 1.24 | 1.99 | 1.64 | 2 | 1.44 | 1.83
[1], days in culture: 122 | 1.69 | 2.22 | 2.07 | 2 | 2.13 | 2.46 | 1.82 | 2.88
[1], days in culture: 163 | 1.9 | 2.08 | 1.83 | 2.4 | 2.14 | 2.03 | 1.74 | 2.12
[2], days in culture: 143 | 2.07 | 1.83 | 2.09 | 1.37 | 1.4 | 1.33 | 1.51 | 2.07
[2], days in culture: 162 | 2.66 | 2.5 | 2.06 | 1.69 | 1.04 | 1.12 | 1.06 | 2.7
[2], days in culture: 201 | 2.49 | 2.01 | 1.57 | 0.935 | 1.44 | 0.611 | 1.21 | 1.49
[5], days in culture: 176 | 2.07 | 1.47 | 2.43 | 1.51 | 1.97 | 1.55 | 1.68 | 1.28
[5], days in culture: 194 | 1.69 | 1.38 | 1.57 | 1.17 | 1.04 | 1.07 | 0.572 | 1.44
[5], days in culture: 201 | 1.69 | 1.66 | 2.26 | 1.14 | 0.939 | 0.886 | 0.445 | 1.25
[6], days in culture: 110 | 2.05 | 1.69 | 1.69 | 1.92 | 1.17 | 1.54 | 1.35 | 2.13
[6], days in culture: 131 | 2.79 | 3.21 | 2.83 | 2.59 | 2.04 | 2.25 | 2.11 | 3.85
[6], days in culture: 152 | 2.67 | 2.23 | 2.89 | 2.1 | 2.27 | 2.28 | 2.16 | 2.17
[7], days in culture: 111 | 1.59 | 1.42 | 1.18 | 1.07 | 0.83 | 0.957 | 0.655 | 1.51
[7], days in culture: 128 | 1.68 ± 0.15 | 1.51 ± 0.073 | 1.5 ± 0.16 | 1.84 ± 0.094 | 1.37 ± 0.12 | 1.77 ± 0.14 | 1.22 ± 0.16 | 1.62 ± 0.16

CTG-3D luminescence at 96 h
Settings | 12.5 pM | 0.00025 µM | 0.005 µM | 0.1 µM | 1 µM | 10 µM | 100 µM | 625 fM
[3] | 2.32 ± 0.86 | 2.47 ± 0.85 | 2.09 ± 0.46 | 2.12 ± 0.35 | 1.83 ± 0.77 | 1.9 ± 0.98 | 1.64 ± 0.53 | 2.12 ± 0.37
[4] | 4.34 ± 1.4 | 4.29 ± 1.5 | 4.44 ± 1.4 | 4.37 ± 1.3 | 2.63 ± 0.79 | 2.29 ± 0.75 | 2.66 ± 1.1 | 4.36 ± 1.3

Nc1ccn([C@@H]2O[C@H](CO)[C@@H](O)C2(F)F)c(=O)n1 [gemcitabine]
CTG-3D luminescence at 96 h
Settings | 12.5 pM | 0.00025 µM | 0.005 µM | 0.1 µM | 1 µM | 10 µM | 100 µM | 625 fM
[1], days in culture: 105 | 1.5 | 1.57 | 1.43 | 0.795 | 0.966 | 0.91 | 0.516 | 1.82
[1], days in culture: 122 | 2.2 | 2.2 | 1.93 | 0.864 | 0.97 | 1.31 | 0.459 | 2.9
[1], days in culture: 163 | 1.49 | 1.85 | 1.78 | 1.61 | 1.15 | 0.775 | 0.456 | 2
[2], days in culture: 143 | 2.04 | 2.09 | 1.86 | 0.136 | 0.104 | 0.118 | 0.054 | 1.61
[2], days in culture: 162 | 2.63 | 2.42 | 1.38 | 0.146 | 0.113 | 0.113 | 0.0256 | 2.7
[2], days in culture: 201 | 2.68 | 1.42 | 1.5 | 0.0613 | 0.383 | 0.0794 | 0.0454 | 1.69
[5], days in culture: 176 | 2.02 | 1.16 | 1.52 | 0.363 | 0.366 | 0.298 | 0.25 | 2.36
[5], days in culture: 194 | 1.78 | 1.42 | 0.983 | 0.145 | 0.284 | 0.28 | 0.115 | 1.66
[5], days in culture: 201 | 2.19 | 1.37 | 0.658 | 0.204 | 0.136 | 0.21 | 0.104 | 2.28
[6], days in culture: 110 | 1.7 | 1.3 | 0.347 | 0.296 | 0.241 | 0.237 | 0.181 | 2.3
[6], days in culture: 131 | 2.42 | 3.53 | 0.976 | 0.427 | 0.344 | 0.344 | 0.213 | 3.6
[6], days in culture: 152 | 2.8 | 4.1 | 0.623 | 0.432 | 0.375 | 0.521 | 0.424 | 2.77
[7], days in culture: 111 | 1.4 | 1.31 | 1.05 | 0.265 | 0.33 | 0.28 | 0.0585 | 1.43
[7], days in culture: 128 | 1.62 ± 0.34 | 1.78 ± 0.5 | 1.15 ± 0.13 | 0.416 ± 0.069 | 0.26 ± 0.029 | 0.399 ± 0.094 | 0.0826 ± 0.03 | 1.9 ± 0.23

CTG-3D luminescence at 96 h
Settings | 12.5 pM | 0.00025 µM | 0.005 µM | 0.1 µM | 1 µM | 10 µM | 100 µM | 625 fM
[3] | 2.3 ± 0.95 | 2.24 ± 0.64 | 1.81 ± 0.36 | 1.35 ± 0.29 | 1.28 ± 0.19 | 1.18 ± 0.56 | 0.939 ± 0.15 | 2.08 ± 0.36
[4] | 4.42 ± 1.4 | 4.37 ± 1.4 | 4.14 ± 1.3 | 2.62 ± 0.85 | 2 ± 0.8 | 1.11 ± 0.44 | 0.848 ± 0.44 | 4.44 ± 1.3
